# Assay results: patent US6469030B2, “Methods for the treatment and prevention of ileus” (Adolor Corporation, priority 1999, dated 2002)
# How the values were obtained:
# [1] = target: mu opioid receptors (Homo sapiens, UniProt P35372); conditions: opioid receptor binding assays; cited from earlier work
# [2] = Solubility in water; assay type: physicochemical; conditions: except at low or high pH conditions
# Text: Zwitterionic character may be inherent to the compound, and may impart desirable properties such as poor systemic absorption and sustained local affect on the gut following oral administration.
# [3] = system: patients undergoing partial colectomy or simple or radical hysterectomy surgical procedures; test: Phase II clinical study versus placebo in patients after abdominal surgery (post-surgical ileus); assay type: in vivo, humans
# Experimental: A 78 patient Phase II clinical study was conducted which compared two doses (2 mg and 12 mg) of the compound of formula (II) versus placebo in patients undergoing partial colectomy or simple or radical hysterectomy surgical procedures. The results of this study are set forth in the following Tables 1 to 4 and are depicted graphically in FIGS. 1 to 5.
# The time to first flatus was reduced by 15 hours; all other measures were reduced by 24 hours or more. […] In particular, none of the patients receiving the higher dose of the compound of formula (II) experienced post-surgical vomiting compared to 23% in the placebo control group (P<0.03). Twenty seven percent of the patients receiving the higher dose of compound (II) experienced clinically relevant post- surgical nausea compared to 63% of the placebo control group (P=0.003).
# Chain of mu opioid receptors (P35372 whole entry): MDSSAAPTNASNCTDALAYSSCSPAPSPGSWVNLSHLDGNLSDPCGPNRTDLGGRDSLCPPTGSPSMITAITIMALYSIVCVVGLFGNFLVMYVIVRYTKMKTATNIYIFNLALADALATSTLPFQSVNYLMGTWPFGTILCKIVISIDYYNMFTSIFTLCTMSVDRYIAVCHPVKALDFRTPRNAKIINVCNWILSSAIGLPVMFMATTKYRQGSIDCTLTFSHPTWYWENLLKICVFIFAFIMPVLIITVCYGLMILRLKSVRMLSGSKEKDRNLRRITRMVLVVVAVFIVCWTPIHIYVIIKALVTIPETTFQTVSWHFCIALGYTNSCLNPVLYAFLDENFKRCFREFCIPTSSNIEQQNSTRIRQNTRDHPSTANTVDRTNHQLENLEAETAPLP
smiles,measurement,setting,value
"C[C@H]1CN(C[C@H](Cc2ccccc2)C(=O)NCC(=O)O)CCC1(C)c1cccc(O)c1 (single isomer, unassigned; (+)) [compound of formula (II), (+)-Z—NHCH2C(O)OH]",opioid receptor binding preference,[1],preferential binding to mu opioid receptors
same,solubility in water,[2],low solubility in water
same,overall adverse effects compared with placebo-treated group,[3]; higher dose,fewer overall adverse effects
same,"reduction of all other measures (first bowel movement, solid diet, ready for discharge, discharge)",[3]; higher dose versus placebo,≥ 24 h
same,reduction of time to first flatus,[3]; higher dose versus placebo,15 h
same,patients experiencing post-surgical vomiting,"[3]; higher dose, 23% in the placebo control group (P<0.03)",none
same,patients experiencing clinically relevant post-surgical nausea,"[3]; higher dose, 63% of the placebo control group (P=0.003)",Twenty seven
same,serious adverse side effects judged related to the compound,[3]; patients of the trial,No patients experienced serious adverse side effects
same,effect on beneficial analgesic effects of systemic narcotics,[3]; patients receiving systemic narcotics for post-surgical pain,did not reduce the beneficial analgesic effects
